In patent US5610174A, “Use of α1A -selective adrenoceptor agonists for the treatment of urinary incontinence” (priority 1995, dated 1997):
Like-named read-outs stand apart in the source and are kept apart here.

How the values were obtained:
[1] = cited from earlier work; for major side effect of use in incontinence (blood pressure): dose-dependent; for major side effect of use in incontinence (blood pressure) / CNS side effects in some patients: Andersson and Sjogren, 1982; for CNS side effects in some patients: stimulant actions in the CNS, Wein, 1987
[2] = prodrug; cited from earlier work
[3] = Andersson and Sjogren, 1982; cited from earlier work
[4] = target: T1, human α1B adrenoceptor (Homo sapiens, UniProt P35368); test: Radioligand binding ([3H]prazosin) at cloned human α1B
T1 construct: The entire coding region of the α1B receptor (1563 bp); expressed in transfected cells
T1 sequence (P35368 1-520): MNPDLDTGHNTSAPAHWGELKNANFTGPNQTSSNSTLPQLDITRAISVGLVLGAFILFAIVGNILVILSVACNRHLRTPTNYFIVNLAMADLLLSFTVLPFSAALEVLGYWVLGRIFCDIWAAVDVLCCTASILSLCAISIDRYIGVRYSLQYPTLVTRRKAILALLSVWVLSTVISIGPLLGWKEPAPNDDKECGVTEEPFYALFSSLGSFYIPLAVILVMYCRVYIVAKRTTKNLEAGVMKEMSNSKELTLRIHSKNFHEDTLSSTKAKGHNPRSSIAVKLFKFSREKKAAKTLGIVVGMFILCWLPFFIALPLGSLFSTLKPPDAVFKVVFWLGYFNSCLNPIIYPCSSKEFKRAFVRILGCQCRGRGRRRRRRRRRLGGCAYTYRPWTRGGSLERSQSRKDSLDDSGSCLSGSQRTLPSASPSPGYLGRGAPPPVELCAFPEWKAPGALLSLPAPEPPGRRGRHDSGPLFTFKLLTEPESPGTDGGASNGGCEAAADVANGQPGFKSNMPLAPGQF
Protocol: (§1) These cell lines were prepared by transfecting the cloned cDNA or cloned genomic DNA or constructs containing both genomic DNA and cDNA encoding the human α-adrenoceptors as follows:
The construct involved ligating the full-length containing EcoRI brainstem cDNA fragment from λ ZapII into the expression vector. Stable cell lines were obtained as described above.
(§2) Transfected cells from culture flasks were scraped into 5 ml of 5 mM Tris-HCl, 5 mM EDTA, pH 7.5, and lysed by sonication. The cell lysates were centrifuged at 1000 rpm. for 5 min at 4° C., and the supernatant was centrifuged at 30,000 ×g for 20 min at 4° C. The pellet was suspended in 50 mM Tris-HCl , 1 mM MgCl2, and 0.1% ascorbic acid at pH 7.5. […] The reaction was stopped by filtration through GF/B filters using a cell harvester.

[5] = target: T2, human α1C adrenoceptor (Homo sapiens, UniProt P35348); test: biochemical; assay type: binding
T2 sequence (P35348 1-466): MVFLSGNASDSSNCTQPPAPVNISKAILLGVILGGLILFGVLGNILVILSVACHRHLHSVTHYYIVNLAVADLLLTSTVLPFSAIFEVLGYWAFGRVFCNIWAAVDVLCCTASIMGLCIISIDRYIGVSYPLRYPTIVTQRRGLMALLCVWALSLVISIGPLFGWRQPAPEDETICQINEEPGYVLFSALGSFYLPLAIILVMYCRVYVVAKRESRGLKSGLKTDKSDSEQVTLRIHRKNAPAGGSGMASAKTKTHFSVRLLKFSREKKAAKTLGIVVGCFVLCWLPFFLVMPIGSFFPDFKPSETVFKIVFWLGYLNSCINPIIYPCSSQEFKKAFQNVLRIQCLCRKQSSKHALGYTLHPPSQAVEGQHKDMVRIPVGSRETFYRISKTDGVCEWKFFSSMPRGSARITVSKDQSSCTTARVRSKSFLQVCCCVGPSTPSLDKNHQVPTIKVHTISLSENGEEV
Protocol: as §1
The construct involved ligating three partial overlapping fragments: a 5' 0.6 kb HincII genomic clone, a central 1.8 EcoRI hippocampal cDNA clone, and a 3' 0.6 Kb PstI genomic clone. The hippocampal cDNA fragment overlaps with the 5' and 3' genomic clones so that the HincII and PstI sites at the 5' and 3' ends of the cDNA clone, respectively, were utilized for ligation. This full-length clone was cloned into the KpnI site of the expression vector, using the 5' and 3' KpnI sites of the fragment, derived from vector (i.e., pBluescript) and 3'-untranslated sequences, respectively. Stable cell lines were obtained as described above.
as §2

[6] = target: T3, human urethra (α1-adrenoceptor) (Homo sapiens, UniProt P35348); test: Contractile study in isolated human male urethra
T3 construct: Tissue samples from the proximal urethra of male humans; from tissue; host or cells: human male proximal urethra strips
T3 sequence (P35348 1-466): T2 sequence (P35348 1-466)
Text: (§3) In addition, similar studies were done using bladder neck tissue from female dogs. In order to identify the specific receptor subtype in each tissue, the pharmacological profile was compared to the profiles for these same drugs at the cloned human α1A, α1B, or α1C subtypes.
(§4) Tissue samples from the proximal urethra of male humans and male and female rabbits, as well as tissue samples from both the proximal urethra and bladder neck of male and female dogs were cut into transverse strips (3×10 mm) and suspended under 0.5 g tension in Krebs' physiological buffer at 37° C. To determine agonist potency (pEC50 )and antagonist affinity constants (pKB), concentration-effect curves to the non-selective agonist phenylepherine were constructed in the absence and in the presence of increasing concentrations of the antagonist. Up to four sequential curves were constructed in each tissue. Antagonists were allowed to equilibrate for 1h before each concentration-effect curve, and the drugs were completely washed out in between successive curves. In each experiment, one tissue served as a "time control", in which no antagonist was added so that changes in tissue sensitivity could be assessed as a function of time. […] In instances in which a single concentration of antagonist was used, pKB values were determined by the equation: […], where CR is defined as the ratio of the agonist EC50 in the presence of the antagonist to that in the absence of the antagonist.

[7] = target: T4, human α1A adrenoceptor (Homo sapiens, UniProt P25100); test: biochemical; assay type: binding
T4 sequence (P25100 1-572): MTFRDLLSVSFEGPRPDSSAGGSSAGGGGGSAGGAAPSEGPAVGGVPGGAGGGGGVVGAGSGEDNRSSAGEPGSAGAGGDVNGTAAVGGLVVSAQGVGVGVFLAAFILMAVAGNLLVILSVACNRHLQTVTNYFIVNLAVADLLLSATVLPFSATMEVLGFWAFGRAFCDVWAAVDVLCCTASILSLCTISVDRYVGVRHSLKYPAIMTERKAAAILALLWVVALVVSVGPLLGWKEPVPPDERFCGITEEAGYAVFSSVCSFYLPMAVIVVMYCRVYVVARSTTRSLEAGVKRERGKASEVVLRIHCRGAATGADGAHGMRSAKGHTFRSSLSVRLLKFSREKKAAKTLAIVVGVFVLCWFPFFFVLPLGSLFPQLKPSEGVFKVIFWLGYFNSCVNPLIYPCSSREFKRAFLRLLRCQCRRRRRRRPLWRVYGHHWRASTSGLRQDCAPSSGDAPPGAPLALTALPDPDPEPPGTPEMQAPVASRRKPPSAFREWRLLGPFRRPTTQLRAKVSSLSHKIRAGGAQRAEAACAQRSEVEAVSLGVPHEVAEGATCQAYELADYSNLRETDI
Protocol: as §1
The cells were grown, in a controlled environment (37° C., 5% CO2), as monolayers in Dulbecco's modified Eagle's Medium (GIBCO, Grand Island, N.Y.) containing 25 mM glucose and supplemented with 10% bovine calf serum, 100 units/ml penicillin g, and 100 μg/ml streptomycin sulfate.
as §2

[8] = target: T5, dog BN, male (α1-adrenoceptor) (Canis lupus, UniProt A0A8I3NK63); test: Contractile study in isolated male dog bladder neck; conditions: versus phenylephrine-induced contraction
T5 sequence (A0A8I3NK63 1-466): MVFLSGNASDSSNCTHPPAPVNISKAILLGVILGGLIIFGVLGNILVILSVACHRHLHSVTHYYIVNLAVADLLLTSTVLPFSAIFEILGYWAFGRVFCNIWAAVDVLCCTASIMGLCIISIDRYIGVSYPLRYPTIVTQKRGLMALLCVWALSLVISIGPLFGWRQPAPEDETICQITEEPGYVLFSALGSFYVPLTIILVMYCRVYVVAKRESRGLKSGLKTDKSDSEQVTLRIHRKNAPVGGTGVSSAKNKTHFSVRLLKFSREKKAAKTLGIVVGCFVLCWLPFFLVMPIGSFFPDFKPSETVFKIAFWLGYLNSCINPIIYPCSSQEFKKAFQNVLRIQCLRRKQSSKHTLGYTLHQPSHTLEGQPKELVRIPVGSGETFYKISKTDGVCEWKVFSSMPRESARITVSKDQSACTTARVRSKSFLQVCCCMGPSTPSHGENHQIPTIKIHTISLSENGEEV
Text: as §3, §4

[9] = target: T6, rabbit urethra, female (α1-adrenoceptor) (Oryctolagus cuniculus, UniProt O02824); test: Contractile study in isolated female rabbit urethra; conditions: versus phenylephrine-induced contraction; read-out: pKB Rabbit Urethra Female (converted)
T6 construct: proximal urethra of male humans and male and female rabbits; from tissue; host or cells: rabbit proximal urethra strips, male or female
T6 sequence (O02824 1-466): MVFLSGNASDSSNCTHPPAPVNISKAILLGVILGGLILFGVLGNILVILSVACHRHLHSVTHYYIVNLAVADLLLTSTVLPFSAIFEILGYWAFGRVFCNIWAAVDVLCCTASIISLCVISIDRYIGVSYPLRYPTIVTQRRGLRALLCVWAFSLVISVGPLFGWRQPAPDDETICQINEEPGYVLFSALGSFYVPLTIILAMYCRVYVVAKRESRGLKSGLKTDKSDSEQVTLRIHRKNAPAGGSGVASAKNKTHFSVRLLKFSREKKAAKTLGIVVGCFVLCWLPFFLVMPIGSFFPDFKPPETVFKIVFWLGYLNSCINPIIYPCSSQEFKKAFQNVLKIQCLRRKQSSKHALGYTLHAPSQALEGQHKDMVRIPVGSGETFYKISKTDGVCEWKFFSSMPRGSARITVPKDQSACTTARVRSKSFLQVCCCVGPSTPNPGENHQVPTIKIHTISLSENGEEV
Text: as §3, §4

[10] = target: T7, rabbit urethra, male (α1-adrenoceptor) (Oryctolagus cuniculus, UniProt O02824); test: Contractile study in isolated male rabbit urethra; conditions: versus phenylephrine-induced contraction
T7 sequence (O02824 1-466): T6 sequence (O02824 1-466)
Text: as §3, §4

[11] = target: T8, dog BN, female (α1-adrenoceptor) (Canis lupus, UniProt A0A8I3NK63); test: Contractile study in isolated female dog bladder neck; conditions: versus phenylephrine-induced contraction
T8 sequence (A0A8I3NK63 1-466): T5 sequence (A0A8I3NK63 1-466)
Text: as §3, §4

Clc1cccc(Cl)c1N=C1NCCN1 [clonidine]
undesirable side effects at therapeutic doses ([1]; in addition to antihypertensive effect): dry mouth, sedation and orthostatic hypotension

CNC[C@H](O)c1cccc(O)c1 [phenylephrine]
major side effect of use in incontinence (blood pressure) [1]: increase in blood pressure

COc1ccc(OC)c(C(O)CNC(=O)CN)c1 (stereo not drawn) [midodrine]
in vivo conversion to active phenylethylamine [2]: converted in vivo to the active phenylethylamine ST-1059 | clinical efficacy in urinary incontinence [3]: has not been demonstrated conclusively

CC(N)C(O)c1ccccc1 (stereo not drawn) [phenylpropanolamine]
major side effect of use in incontinence (blood pressure) [1]: increase in blood pressure | CNS side effects in some patients [1]: insomnia, anxiety and dizziness

COC(=O)C1=C(C)NC(C)=C(C(=O)OCCCN2CCC(c3ccccc3)(c3ccccc3)CC2)C1c1ccc([N+](=O)[O-])cc1.Cl (racemic) [Compound 1, (±)-2,6-Dimethyl-4-(4-nitrophenyl)-1,4-dihydro-pyridine-3,5-dicarboxylicacid [3-(4,4-diphenylpiperidin-1-yl)propyl]ester methyl ester hydrochloride]
Ki [4]: 79.4 nM | Ki [5]: 3.16 nM | Kb [6]: 7.94 nM | Ki [7]: 316 nM | pKB Dog BN Male [8]: 6.2

COc1ccccc1N1CCN(CCN2C(=O)CC3(CCCC3)CC2=O)CC1 [BMY 7378]
Ki ([4]; Table 2, antagonists, versus 3H-prazosin, read-out: pKI (antagonist affinity, 3H-prazosin binding) hα1B (converted)): 100 nM | Kb [9]: 794 nM | pKB Rabbit Urethra Male [10]: 6.5 | pKB Dog BN Female [11]: 6.8 | pKB Dog BN Male [8]: 7.1

CN[C@@H](C)[C@H](O)c1ccccc1 [ephedrine]
major side effect of use in incontinence (blood pressure) [1]: increase in blood pressure | CNS side effects in some patients [1]: insomnia, anxiety and dizziness
